Like-named read-outs stand apart in the source and are kept apart here.

Series [1] can be described thus: Refinement of intrinsic and salt solubility with pDISOL-X. From the text: To develop a solution speciation model, the experimental data of log S—pH were used as input into the computer program pDISOL-X [30]. The computational algorithm considers the contributions of all species present in solution, including all buffer components. The program derives its own implicit solubility equations internally, given any practical number of equilibria and estimated constants. The equilibrium constants are subsequently refined by weighted nonlinear least-squares regression. The method can test for the presence of specific buffer drug species. The program assumes an initial condition of a suspension of the solid drug in a solution, ideally with the suspension saturated over a wide range of pH. The software calculates the species distribution as a consequence of a sequence of additions of standardized strong-acid titrant HCl to simulate the suspension pH-speciation down to pH ~ 0, the staging point for the subsequent operation. […] The ionic strength is rigorously calculated at each step, and pKa values (as well as the solubility products and the aggregation and complexation constants) are adjusted accordingly. At the end of the pH-speciation simulation, the calculated log S vs. pH curve is compared to log S vs. pH measured. A log S-weighted nonlinear least squares refinement begins to refine the proposed equilibrium model, using analytical expressions for the differential equations. The process is repeated until the differences between calculated and measured log S values reach a minimum.

Series [2] is described as follows: Apparent permeability across MDCK monolayers. The settings on record: dog, 37 °C, stirring at 50 rpm. The class given is in vitro ADME, Canine. As to the method: MDCK (Madin–Darby Canine Kidney) cells, their transfected clone MDCK-MDR1, and Caco-2 cells were grown in the modified Dulbecco Eagle medium added with L-glutamine, fetal bovine serum and penicillin−streptomycin. The number of cells seeded in transwells with a surface area of 4.2 cm^2 depended on the cell line: 250,000 cells/cm^2 for MDCK and Caco-2 and 150,000 cells/cm^2 for MDCK-MDR1. Experiments were performed between 7 and 9 days for MDCK and MDCK-MDR1 and between 19 and 21 for Caco-2 cells after seeding. Prior to drug placement, cell monolayer integrity was assessed by measuring transepithelial electrical resistance (TEER). Transport studies were performed on an orbital shaker at 37 °C and 50 rpm. Four samples of 200 μL were taken from the receptor side at 0, 15, 30, 60 and 90 min, and two samples from the donor compartment at the beginning and end of the experiment. A standard experiment was performed with the same buffer for the apical and basolateral compartments in the apical to basolateral (A-B) and basolateral to apical (B-A) directions. The drug concentration was 100 μM in all experiments and samples were analyzed immediately by HPLC. The retention time was 2.3 min at maximum wavelengths (λmax = 260 nm). […] The lower limit of quantitation of JM-20 was adequate to interpolate the values obtained in the samples. […]

Details of series [3]: method as in product owner (technical report). The settings on record: ref product owner (technical report); cited from earlier work.

The solubility is how much of the substance goes into solution per volume. Usually Papp A→B stands for how fast a substance crosses the layer from the apical side. As a reminder, the Papp B→A is how fast a substance crosses the layer from the basolateral side. `CCOC(=O)C1=C(C)NC2=C(C=Nc3ccccc3N2)C1c1ccccc1[N+](=O)[O-]` (stereo not shown) [JM-20, 3-ethoxycarbonyl-2-methyl-4-(2-nitrophenyl)-4,11-dihydro-1H-pyrido [2,3-b][1,5] benzodiazepine]: the solubility was 12 µg/mL in series [1] (37 °C, read-out: So, intrinsic solubility calculated by pDISOL-X); 14.3 µg/mL in series [1] (aqueous buffer, pH 3.5, 37 °C, read-out: Solubility calculated by pDISOL-X); 18.9 µg/mL in series [1] (aqueous buffer, pH 4.0, 37 °C, read-out: Solubility calculated by pDISOL-X); 74.9 µg/mL in series [1] (aqueous buffer, pH 4.5, 37 °C, read-out: Solubility calculated by pDISOL-X); 12.5 µg/mL in series [1] (aqueous buffer, pH 6.8, 37 °C, read-out: Solubility calculated by pDISOL-X); 11.9 µg/mL in series [1] (aqueous buffer, pH 7.4, 37 °C, read-out: Solubility calculated by pDISOL-X). In series [1] (pH 1.2, 37 °C, read-out: Solubility calculated by pDISOL-X), the solubility was 3.3 µg/mL. Further, the Papp A→B at 90 min, 100 µM in series [2] came to 24.6 ± 1.1 ×10⁻⁶ cm/s. Besides, the Papp B→A at 90 min, 100 µM in series [2] worked out at 2.8 ± 7.1 ×10⁻⁶ cm/s. In series [3], the “Stability in DMSO and absolute ethanol” value is listed as “stable”.

The values are drawn from article PMC8780741, “Integration of In Silico, In Vitro and In Situ Tools for the Preformulation and Characterization of a Novel Cardio-Neuroprotective Compound during the Early Stages of Drug Development” (Pharmaceutics, 2022).
